Active and inactive are the calls of the source.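 How the source made its calls: active means phosphorylated EGFR protein level shifted down or up by at least 30% versus solvent-only treated cells; inactive means shift under 30% in either direction.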
Molecular target: Epidermal growth factor receptor (Homo sapiens) (UniProt P00533)
Experiment: decrease of p-EGFR levels in colorectal cells – SW620 cells, chemiluminescent western blot, powder samples, counter-screen for KLF5 inhibitor project, late-stage follow-up (AID 588677)
Settings: 24 h, at 10 µM; for fold change: measured here: p-EGFR band fold change vs DMSO

Epidermal growth factor receptor (Homo sapiens), sequence (P00533 whole entry, looked up): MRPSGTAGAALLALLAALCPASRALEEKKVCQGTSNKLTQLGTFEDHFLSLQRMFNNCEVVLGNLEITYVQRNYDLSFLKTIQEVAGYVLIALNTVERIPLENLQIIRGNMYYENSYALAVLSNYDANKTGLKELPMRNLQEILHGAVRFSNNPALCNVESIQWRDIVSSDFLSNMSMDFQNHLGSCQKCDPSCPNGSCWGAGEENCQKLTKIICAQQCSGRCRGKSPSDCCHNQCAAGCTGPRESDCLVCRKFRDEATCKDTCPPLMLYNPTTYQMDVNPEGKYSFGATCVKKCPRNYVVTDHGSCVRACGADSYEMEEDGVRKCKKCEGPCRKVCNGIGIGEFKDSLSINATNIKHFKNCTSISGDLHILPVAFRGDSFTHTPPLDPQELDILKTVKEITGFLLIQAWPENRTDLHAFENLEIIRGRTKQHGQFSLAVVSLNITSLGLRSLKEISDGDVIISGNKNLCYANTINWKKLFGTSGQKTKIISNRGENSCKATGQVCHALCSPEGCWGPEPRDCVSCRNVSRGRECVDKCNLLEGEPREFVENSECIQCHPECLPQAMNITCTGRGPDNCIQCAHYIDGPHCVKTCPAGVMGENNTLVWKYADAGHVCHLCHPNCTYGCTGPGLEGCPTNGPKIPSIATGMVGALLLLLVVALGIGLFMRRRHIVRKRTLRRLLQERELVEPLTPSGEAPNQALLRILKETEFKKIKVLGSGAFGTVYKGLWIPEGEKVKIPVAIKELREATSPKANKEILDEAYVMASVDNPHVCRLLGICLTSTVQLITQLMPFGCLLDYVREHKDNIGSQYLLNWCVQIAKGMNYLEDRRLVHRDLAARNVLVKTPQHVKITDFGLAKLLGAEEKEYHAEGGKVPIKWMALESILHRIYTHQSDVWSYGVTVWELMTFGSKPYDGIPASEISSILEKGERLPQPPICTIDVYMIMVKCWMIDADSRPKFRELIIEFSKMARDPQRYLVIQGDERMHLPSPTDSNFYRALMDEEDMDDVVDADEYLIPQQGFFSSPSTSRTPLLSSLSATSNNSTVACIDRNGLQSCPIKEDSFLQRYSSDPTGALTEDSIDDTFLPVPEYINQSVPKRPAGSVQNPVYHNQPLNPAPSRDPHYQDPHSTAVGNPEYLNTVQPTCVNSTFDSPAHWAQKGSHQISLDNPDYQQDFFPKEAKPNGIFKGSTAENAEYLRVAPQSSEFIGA

## CN(C(=O)CNC(=O)/C=C/c1cccc(Cl)c1)C1CCS(=O)(=O)CC1
  fold change: 14.2

## CN(C(=O)CNC(=O)/C=C/c1cccc(Cl)c1)C1CCS(=O)(=O)C1 (stereo not given)
  inhibition: 20% (inactive)
  fold change: -1.25

## CN(C(=O)COC(=O)/C=C/c1cccc([N+](=O)[O-])c1)C1CCS(=O)(=O)C1 (stereo not given)
  inhibition: -71.5%
  fold change: 1.72

— PubChem BioAssay AID588677 (The Scripps Research Institute Molecular Screening Center, 2011)
